Columns and labels:
[1] = cited from earlier work; for PTH / hormonal activity compared with natural h-PTH: prior art, Jap. Pat. Unexam. Publ. No. 55-113753
PTH receptor = biological target: T1, PTH receptor (Rattus norvegicus, UniProt P25961); experiment: Assay of PTH activity: c-AMP generated on reaction with rat renal cortex PTH receptor preparation, parallel line assay against standard bovine PTH(1-34); type: biochemical; conditions: for h-PTH activity, times stronger than known h-PTH(1-34) and [Nle8, Nle18]-h-PTH(1-34): compared with h-PTH(1-34) and [Nle8, Nle18]-h-PTH(1-34); for PTH Activity: unlabelled sample, vs standard bovine PTH(1-34); for PTH Activity / PTH Activity After Labelling with 125I: rat renal cortex PTH receptor, c-AMP generation; for PTH Activity After Labelling with 125I: after labelling with iodine-125 (chloramine T)
T1 construct: A surface membrane was removed, and the renal cortex carved out and ice-cooled; from tissue; host or cells: rat (SD, male) renal cortex, crude membrane fraction (2200 x g precipitate)
T1 sequence (P25961 27-591): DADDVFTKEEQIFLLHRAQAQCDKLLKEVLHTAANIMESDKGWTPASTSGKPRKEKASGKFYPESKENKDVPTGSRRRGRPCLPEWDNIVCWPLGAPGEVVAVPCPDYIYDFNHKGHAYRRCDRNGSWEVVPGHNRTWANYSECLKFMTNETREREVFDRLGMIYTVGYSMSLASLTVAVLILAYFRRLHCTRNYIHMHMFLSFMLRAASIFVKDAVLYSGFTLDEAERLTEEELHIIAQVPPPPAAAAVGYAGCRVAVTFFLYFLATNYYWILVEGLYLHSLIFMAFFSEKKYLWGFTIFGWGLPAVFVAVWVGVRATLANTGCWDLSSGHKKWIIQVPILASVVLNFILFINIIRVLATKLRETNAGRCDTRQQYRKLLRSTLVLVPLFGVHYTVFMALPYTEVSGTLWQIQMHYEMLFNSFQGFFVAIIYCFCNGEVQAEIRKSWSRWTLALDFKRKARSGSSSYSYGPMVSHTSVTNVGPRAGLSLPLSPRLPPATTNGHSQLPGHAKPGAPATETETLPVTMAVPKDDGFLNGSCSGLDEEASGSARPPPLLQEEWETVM
Protocol: (1) Preparation of PTH receptor:
Rats, strain SD, male, weight 200-250 g, were decollated to bleed, laparotomized and excised of kidneys. A surface membrane was removed, and the renal cortex carved out and ice-cooled. The following operations should be carried out at a temperature as low as possible (0°-4° C.).
The renal cortex was immersed in a solution (hereinafter designated as solution A) of 10 mM Tris-HCl buffer (pH 7.5) containing 0.25 M sucrose and lmM EDTA. Three times the volume of solution A (ml) suspending the renal cortex (wet weight) was added to a renal cortex in a glass tube with Tefron (trade name) pestle and homogenized.
A homogenate was centrifuged for 10 minutes at 150×g, and the supernatant solution was further centrifuged for 15 mins. at 2200×g. The supernatant solution was discarded and the upper emulsion part of precipitate was suspended in a solution A. The said emulsion was centrifuged for 15 mins. at 2200×g. The precipitate was again suspended and frozen at -70° C. in a bottle stored at -20° C.
(2) Reaction with PTH and PTH-receptor:
Specimen was dissolved in 100 mM Tris-HCl buffer (ph 7.5) containing ATP-Mg 2 mM, MgCl2 10 mM, KCl 60 mM, GTP 20 μM, isobutyl methyl xanthine 1 mM, creatine phosphate 8 mM and bovine serum albumin (BSA) 0.2% to prepare 2 μg/ml and 10 μg/ml solutions. Standard bovine PTH(1-34) solution was also prepared in the same manner.
The above solutions [2 μg/ml and 10 μg/ml specimen] and bovine PTH(1-34) (50 μl) were each divided among eight glass test tubes, and kept in ice water in order to prevent ATP […] and to prepare test solutions. A stock solution of PTH receptor stored at -20° C. was thawed to room temperature. Creatine kinase, previously dissolved in solution A, was added thereto to prepare creatine kinase at 0.1 mg/ml and PTH receptor at 1.4 mg/ml as protein by adding solution A while keeping the solution in ice cooling. After the above test solutions were preincubated at 37° C. for several minutes, the PTH receptor-creatine kinase solution (each 50 μl) was added therein and incubated at 37° C. for 10 mins. 0.1 M acetate buffer (pH 4.0, 100 μl) was added, the mixture immediately placed in ice-water, and the tube heated in boiling water for one minute to stop the reaction.
(3) Assay of generated c-AMP:
Distilled water was added to the above reaction-stopped solution to 10-30 times dilution, and deproteinized by centrifugation for 15 mins. at 2000×g. An amount of c-AMP in a supernatant solution was assayed by RIA-kit (YASAMA SHOYU CO.)
(4) Determination of PTH activity:
The measured values of c-AMP hereinabove were converted to a unit of pM (pico mole)/mg PTH receptor-protein/minute as a designation of measured value. The measured value of the specimen was compared to the standard substance according to a parallel assay line two by two.

PTH receptors = experiment: Affinity for PTH receptors (statement, no method given); type: binding; conditions: in words

Row | Substance | PTH Activity (PTH receptor) [U/mg] | PTH Activity After Labelling with 125I (PTH receptor) [U/mg] | other results
1 | [Nle^8, Nle^18 ]-h-PTH(1-34) | – | – | PTH / hormonal activity compared with natural h-PTH [1]: approximately equal to but no more than that of natural h-PTH
2 | h-PTH(1-34) (SVSEIQLMHNLGKHLNSMERVEWLRKKLQDVHNF; Parathyroid hormone; UniProt P01270 32-65, looked up, fragment) [34-amino acid N-terminal fragment of human parathyroid hormone] | – | – | hormonal activity when labelled with iodine-125 ([1]; methionine at position-8 and -18 is oxidized): loses hormonal activity
3 | h-PTH: sample of the activity table; human parathyroid hormone, probably the h-PTH(1-34) fragment labelled in b29 | 3000 | > 100 | –

Continued, in another order:

Row | PTH Activity (PTH receptor) [U/mg] | PTH Activity After Labelling with 125I (PTH receptor) [U/mg] | Substance | other results
4 | 5000 | – | [Nle^8, Nle^18, Phe^34 ]-h-PTH(1-34)NH2 | h-PTH activity, times stronger than known h-PTH(1-34) and [Nle8, Nle18]-h-PTH(1-34) (PTH receptor): 1.5-2 times; affinity for PTH receptors compared with known h-PTH(1-34) and [Nle8, Nle18]-h-PTH(1-34) (PTH receptors): stronger affinity
5 | 2930 | 2480 | [Nle^8, Nle^18, Tyr^34 ]-h-PTH(1-34) | PTH / hormonal activity compared with natural h-PTH [1]: only approximately equal to that of natural h-PTH(1-34)
6 | 5030 | 5000 | [Nle^8, Nle^18, Tyr^34 ]-h-PTH(1-34)NH2 | PTH activity after labelling (in words) (PTH receptor; after labelling with iodine-125): retains its PTH activity after labelling; h-PTH activity, times stronger than known h-PTH(1-34) and [Nle8, Nle18]-h-PTH(1-34) (PTH receptor): 1.5-2 times; biological activity in long term storage (PTH receptor; labelled peptide, long term storage): retains its biological activity in long term storage; affinity for PTH receptors compared with known h-PTH(1-34) and [Nle8, Nle18]-h-PTH(1-34) (PTH receptors): stronger affinity
7 | 5100 | > 150 | h-PTH(1-34)NH2 | –

Source: patent US4656250A, “[Nle^8, Nle^18, Tyr^34 or Phe^34 ]-h-PTH peptide derivatives” (Toyo Jozo Kabushiki Kaisha, priority 1983, dated 1987)
